In patent publication US8802240B2, “Uses of formulations of thyroid hormone analogs and nanoparticulate forms thereof to increase chemosensitivity and radiosensitivity in tumor or cancer cells” (Nanopharmaceuticals LLC, priority 2011, dated 2014):
Values joined by “and” are separate entries in the source; they are usually repeats but may differ in a detail not shown here. Identical values can stand only once. Like-named read-outs stand apart in the source and are kept apart here. Each block holds one compound with its values, some of them ahead of it.

Key:
[1] = tested on: chick chorioallantoic membrane (CAM) blood vessel branch points; assay: Chick chorioallantoic membrane (CAM) model of angiogenesis; type: in vivo
Description: In vivo neovascularization was examined by methods described previously. 9-12 Ten-day-old chick embryos were purchased from SPAFAS (Preston, Conn.) and incubated at 37° C. with 55% relative humidity. A hypodermic needle was used to make a small hole in the shell concealing the air sac, and a second hole was made on the broad side of the egg, directly over an avascular portion of the embryonic membrane that was identified by candling. A false air sac was created beneath the second hole by the application of negative pressure at the first hole, causing the CAM to separate from the shell. […] Thyroid hormone, hormone analogs, FGF2 or control solvents, and inhibitors were then applied to the disks and the disks allowed to dry. The disks were then suspended in PBS and placed on growing CAMs. […] At 24 hours, the MAPK cascade inhibitor PD 98059 was also added to CAMs topically by means of the filter disks. […] The number of vessel branch points contained in a circular region equal to the area of each filter disk were counted. […] In addition, each experiment was performed 3 times. The resulting angiogenesis index is the mean±SEM of new branch points.

[2] = tested on: matrigel plug angiogenesis; assay: Mouse matrigel model of angiogenesis (plug hemoglobin); type: in vivo, mice (C57BL/6NCr); conditions: for inhibition in vivo at 10 µg/plug: Mus musculus, FGF 100 ng + test substance 10 μg/plug; for inhibition in vivo at 10 µg/plug / inhibition of FGF-induced angiogenesis (in words): numbers are Tetrac analogs of Example 13
Description: Normal male mice (C57BL/6NCr) 6-8 weeks of age and weighing ˜20 g were purchased from Taconic farm. Animals were housed 4 per cage, in controlled conditions of temperature (20-24° C.); humidity (60-70%) and 12 hrs. light/dark cycle provided with food and water ad libitum. […] Aliquots of matrigel were placed into cold polypropylene tubes to prevent the matrigel from solidifying and the angiogenesis promoter added to matrigel with or without agonist. Mice were treated daily. Matrigel was subcutaneously injected as triple injection per animal at 100 μL/animal. At day 14 post plug implant all animals were killed in CO2 chamber and matrigel plugs were collected. Plug hemoglobin content was analyzed from three implants/mice (n=6 per group) to measure angiogenesis.
The matrigel plugs dissected from the mice were carefully stripped of any remaining peritoneum. The plugs were placed into 0.5 mL tube of ddH2O and homogenized for 5-10 min. […] Absorbance was read with a Microplate Manager ELISA reader at 540 nm. […] Hemoglobin concentration is a reflection of the number of blood vessels in the plugs.

[3] = Gallus gallus, read-out: Mean % of stimulation (comparing to PBS)
[4] = 0.01 uM; n = 8 per group; PBS (Control) 89.4 ± 9.3
[5] = 0.1 uM; n = 8 per group; PBS (Control) 89.4 ± 9.3
[6] = 10 μg/matrigel plug, numbers are T4 analogs of Example 12, n = 6-7, Control 0.3 ± 0.1
[7] = numbers are T4 analogs of Example 12
[8] = T4 + test substance, each 10 μg/matrigel plug, n = 25, T4 alone 1.2 ± 0.4
[9] = 1 μM; numbers are T4 analogs of Example 12
[10] = 1 μM; numbers are T4 analogs of Example 12; mean ± SEM, n = 8; PBS 73 ± 6
[11] = 10 μg/matrigel plug, numbers are T4 analogs of Example 12

melting point: 120 °C
Compound: CC(C)[Si](OC(=O)Cc1cc(I)c(Oc2cc(I)c(OCC3CO3)c(I)c2)c(I)c1)(C(C)C)C(C)C (stereo not drawn)

melting point: 116 °C
Compound: O=C(Cc1cc(I)c(Oc2cc(I)c(OCC3CO3)c(I)c2)c(I)c1)OCC1CO1 (stereo not drawn)

Compound: CC(C)(C)OC(=O)NC(Cc1cc(I)c(Oc2cc(I)c(OCC3CO3)c(I)c2)c(I)c1)C(=O)OCC1CO1 (stereo not drawn) (hydrate or solvate) [T4 analog 14, Oxiran-2-ylmethyl-2-(tert-butoxycarbonylamino)-3-(4-(3,5-diiodo-4-(oxiran-2-ylmethoxy)phenoxy)-3,5-diiodophenyl)propanoate]
melting point: 105 °C

Compound: CC(C)[Si](OC(=O)C(Cc1cc(I)c(Oc2cc(I)c(OCC3CO3)c(I)c2)c(I)c1)NC(=O)OC(C)(C)C)(C(C)C)C(C)C (stereo not drawn) (hydrate or solvate) [T4 analog 15, Triisopropylsilyl-2-(tert-butoxycarbonylamino)-3-(4-(3,5-diiodo-4-(oxiran-2-ylmethoxy)phenoxy)-3,5-diiodophenyl)propanoate]
melting point: 109 °C

Compound: CC(C)(C)OC(=O)NC(Cc1cc(I)c(Oc2cc(I)c(O)c(I)c2)c(I)c1)C(=O)O (stereo not drawn) [Compound 7]
change in vivo at 0.1 µM [1, 3]: 137 ± 7.5%

Compound: CC(=O)NC(Cc1cc(I)c(Oc2cc(I)c(OC(C)=O)c(I)c2)c(I)c1)C(=O)O (stereo not drawn) [Compound 9]
change in vivo at 0.1 µM ([1]; Gallus gallus; read-out: Mean % of stimulation (comparing to PBS)): 67.1 ± 5%

Compound: O=C(O)Cc1cc(I)c(Oc2cc(I)c(OCC3CO3)c(I)c2)c(I)c1 (stereo not drawn) [Compound 9]
inhibition in vivo at 10 µg/plug [2]: 100 ± 12%

Compound: O=C(O)CCc1cc(I)c(Oc2ccc(O)cc2)c(I)c1 [DITPA, 3,5-diiodothyropropionic acid]
ANGIOGENESIS INDEX [1, 4]: 133.0 ± 11.6
ANGIOGENESIS INDEX [1, 5]: 167.3 ± 12.7
ANGIOGENESIS INDEX ([1]; 0.2 mM; n = 8 per group; PBS (Control) 89.4 ± 9.3): 117.9 ± 5.6

Compound: Cc1cc(OCC(=O)O)cc(C)c1Cc1ccc(O)c(C(C)C)c1 [GC-1, 3,5-dimethyl-4-(4′-hydroxy-3′-isopropylbenzyl)-phenoxy acetic acid]
ANGIOGENESIS INDEX [1, 4]: 169.6 ± 11.6
ANGIOGENESIS INDEX [1, 5]: 152.7 ± 9.0

Compound: O=C(O)C(Cc1cc(I)c(Oc2cc(I)c(O)c(I)c2)c(I)c1)NC(c1ccccc1)(c1ccccc1)c1ccccc1 (stereo not drawn) [PRIAB2]
Branch pts ± SEM ([1]; 0.1 μM; PBS 76.0 ± 8.5): 136.0 ± 18.1

Compound: CNC(Cc1cc(I)c(Oc2cc(I)c(O)c(I)c2)c(I)c1)C(=O)O (stereo not drawn) [PRIAB6]
Branch pts ± SEM ([1]; 0.1 μM; PBS 76.0 ± 8.5): 136.2 ± 12.4

Compound: CCNC(Cc1cc(I)c(Oc2cc(I)c(O)c(I)c2)c(I)c1)C(=O)O (stereo not drawn) [PRIAB12]
Branch pts ± SEM ([1]; 0.1 μM; PBS 76.0 ± 8.5): 121.7 ± 13.6

Compound: CC(C)(C)OC(=O)NC(Cc1cc(I)c(Oc2cc(I)c(O)c(I)c2)c(I)c1)C(=O)O (stereo not drawn) [T4 analog 7, 2-[(Tert-butoxycarbonyl)amino]-3-[4-(4-hydroxy-3,5-diiodophenoxy)-3,5-diiodophenyl]propanoic acid]
Branch pts ± SEM ([1]; 0.1 μM; PBS 65.2 ± 14.9): 173 ± 9.9

Compound: CNC(Cc1cc(I)c(Oc2cc(I)c(O)c(I)c2)c(I)c1)C(=O)[O-].O.O.[K+] (stereo not drawn) [T4 analog 10, Potassium 3-[4-(4-hydroxy-3,5-diiodophenoxy)-3,5-diiodophenyl]-2-(methylamino)propanoate dihydrate]
Mean % of stimulation (comparing to PBS) ([1]; 0.1 μM; numbers are T4 analogs of Example 12): 43.8 ± 6.5%
Mean Branch points ([1]; 0.1 μM; numbers are T4 analogs of Example 12; mean ± SEM, n = 8; PBS 73 ± 6): 105 ± 7
Mean stimulation of angiogenesis (%) ([2]; 10 μg/matrigel plug, numbers are T4 analogs of Example 12, dihydrate): 87% and 87 ± 33%
Hemoglobin (mg/mL) ± SEM [2, 6]: 0.8 ± 0.2 mg/mL

Compound: CCNC(Cc1cc(I)c(Oc2cc(I)c(O)c(I)c2)c(I)c1)C(=O)O (stereo not drawn) [T4 analog 11, 2-(Ethylamino)-3-[4-(4-hydroxy-3,5-diiodophenoxy)-3,5-diiodophenyl]propanoic acid]
effect on angiogenesis, representative illustrations FIG. 23 (in words) [1, 7]: proangiogenesis

Compound: CCNC(Cc1cc(I)c(Oc2cc(I)c(O)c(I)c2)c(I)c1)C(=O)OCC (stereo not drawn) [T4 analog 12, Ethyl-2-(ethylamino)-3-[4-(4-hydroxy-3,5-diiodophenoxy)-3,5-diiodophenyl]propanoate]
Mean Branch points ([1]; FGF (1.25 μg/ml) + T4 analog 12 (0.1 μM); PBS 73 ± 6): 46 ± 2
effect on FGF and T4 activity, CAM and matrigel assays (in words) ([1]; T4 analog of Example 12): entirely inhibiting FGF and T4 activity
effect on angiogenesis, representative illustrations FIG. 23 (in words) [1, 7]: anti-angiogenic
Hemoglobin (mg/mL) ± SEM [2, 8]: 0.4 ± 0.1 mg/mL

Compound: CC(C)[Si](OC(=O)C(Cc1cc(I)c(Oc2cc(I)c(O)c(I)c2)c(I)c1)NC(=O)OC(C)(C)C)(C(C)C)C(C)C (stereo not drawn) [T4 analog 13, Triisopropylsilyl-2-(tert-butoxycarbonylamino)-3-(4-(4-hydroxy-3,5-diiodophenoxy)-3,5-diidoclophenyl)propanoate]
Mean % of stimulation (comparing to PBS) [1, 9]: 4.1 ± 6.5%
Mean Branch points [1, 10]: 76 ± 7
Mean % Inhibition ([1]; FGF (1.25 μg/ml) + test substance, 10 μg/plug per footnote; numbers are Tetrac analogs of Example 13): 44 ± 13%
Mean Branch points ([1]; FGF (1.25 μg/ml) + test substance, 10 μg/plug per footnote; numbers are Tetrac analogs of Example 13; n = 8; PBS 73 ± 6, FGF 130 ± 11): 105 ± 7
Mean stimulation of angiogenesis (%) [2, 11]: 0 ± 17%
Hemoglobin (mg/mL) ± SEM [2, 6]: 0.3 ± 0.1 mg/mL

Compound: CC(C)(C)OC(=O)NC(Cc1cc(I)c(Oc2cc(I)c(OCC3CO3)c(I)c2)c(I)c1)C(=O)OCC1CO1 (stereo not drawn) [T4 analog 14, Oxiran-2-ylmethyl-2-(tert-butoxycarbonylamino)-3-(4-(3,5-diiodo-4-(oxiran-2-ylmethoxy)phenoxy)-3,5-diiodophenyl)propanoate]
Mean % of stimulation (comparing to PBS) [1, 9]: 56.2 ± 7.5%
Mean Branch points [1, 10]: 114 ± 11
Mean stimulation of angiogenesis (%) [2, 11]: 0 ± 17%
Hemoglobin (mg/mL) ± SEM [2, 6]: 0.3 ± 0.1 mg/mL

Compound: CC(C)[Si](OC(=O)C(Cc1cc(I)c(Oc2cc(I)c(OCC3CO3)c(I)c2)c(I)c1)NC(=O)OC(C)(C)C)(C(C)C)C(C)C (stereo not drawn) [T4 analog 15, Triisopropylsilyl-2-(tert-butoxycarbonylamino)-3-(4-(3,5-diiodo-4-(oxiran-2-ylmethoxy)phenoxy)-3,5-diiodophenyl)propanoate]
Mean Branch points [1, 10]: 98 ± 8
change in vivo at 1 µM [1, 3]: 34.2 ± 7%
effect on angiogenesis, representative illustrations FIG. 23 (in words) [1, 7]: no effect
Mean stimulation of angiogenesis (%) [2, 11]: 0 ± 17%
Hemoglobin (mg/mL) ± SEM [2, 6]: 0.3 ± 0.1 mg/mL

Compound: CC(C)(C)OC(=O)Cc1cc(I)c(Oc2cc(I)c(O)c(I)c2)c(I)c1 [Tetrac analog 3, tert-Butyl-2-(4-(4-hydroxy-3,5-diiodophenoxy)-3,5-diiodophenyl)acetate]
inhibition of FGF-induced angiogenesis (in words) [2]: strong

Compound: O=C(Cc1cc(I)c(Oc2cc(I)c(O)c(I)c2)c(I)c1)NC1CCCCC1 [Tetrac analog 4, N-cyclohexyl-2-(4-(4-hydroxy-3,5-diiodophenoxy)-3,5-diiodophenyl)acetamide]
inhibition of angiogenesis in the CAM assay (in words) ([1]; numbers are Tetrac analogs of Example 13): not as strong as compounds 3, 5, 7, and 9
inhibition in vivo at 10 µg/plug [2]: 104 ± 12%
inhibition of FGF-induced angiogenesis (in words) [2]: strong

melting point: 263 °C
Compound: O=C(Cc1cc(I)c(Oc2cc(I)c(OCCCl)c(I)c2)c(I)c1)NC1CCCCC1 [Tetrac analog 15, 2-(4-(4-(2-chloroethoxy)-3,5-diiodophenoxy)-3,5-diiodophenyl)-N-cyclohexylacetamide]

Compound: FGF2: human recombinant FGF2, basic fibroblast growth factor, standard proangiogenic agent
ANGIOGENESIS INDEX ([1]; 1 uM; n = 8 per group; PBS (Control) 89.4 ± 9.3): 155 ± 9
Branch pts ± SEM ([1]; 1.25 μg/ml; PBS 76.0 ± 8.5): 137.9 ± 7.5
Mean % of stimulation (comparing to PBS) ([1]; FGF 1.25 μg/mL alone): 178.1 ± 7.5%
Mean Branch points ([1]; FGF 1.25 μg/mL alone; n = 8; PBS 73 ± 6): 130 ± 11
stimulation of branch formation ([1]; FGF2 1 μg/mL): 2.2 fold
increase in angiogenesis ([1]; FIG. 5, 3 experiments; concentration not given): 2 fold
Hemoglobin (mg/mL) ± SEM ([2]; FGF 100 ng alone, Control 0.3 ± 0.1): 2.4 ± 0.4 mg/mL

Compound: tetraiodothyroacetic acid [Tetrac]
Mean inhibition of angiogenesis (%) ([2]; T4 + test substance, each 10 μg/matrigel plug): 89 ± 11%
Hemoglobin (mg/mL) ± SEM [2, 8]: 0.4 ± 0.1 mg/mL
